Assay results reported in patent US11466326B2, “Methods and kit for diagnosing and treating colorectal cancer based on AvrA and Wnt1” (The Board of Trustees of the University of Illinois, priority 2018, dated 2022).
Peptide text beside a SMILES is read from it. * marks the point of attachment. Cbz = O=C(OCc1ccccc1)*

Tests used:
Wnt1 protein [1] = assay: Wnt1 protein level by immunoblot after LPS treatment of human epithelial cells; type: cell-based; settings: cells treated with LPS, total cell lysates
Procedure: (§1) Western Blot Analysis of Cell Line Proteins. Infected or control cells were rinsed twice in ice-cold HESS and lysed in protein loading buffer (50 mM Tris, pH 6.8, 100 mM dithiothreitol, 2% SDS, 0.1% bromophenol blue, and 10% glycerol). Equal amounts of protein were separated by SDS-polyacrylamide gel electrophoresis, transferred to nitrocellulose membranes, and analyzed by immunoblotting with anti-Wnt1 and anti-β-actin antibodies (Bioworld). The signals were visualized and quantitated using LI-COR Odyssey v3.0 software after probing the membranes with an infrared-conjugated secondary antibody.

Wnt1 protein [2] = assay: Wnt1 protein level after Salmonella infection in the presence of a proteasome inhibitor; type: cell-based, human; settings: in the presence of MG132; compared with control cells without treatment
Procedure: as §1

Molecule	change in Wnt1 expression (decrease as seen with Salmonella) (Wnt1 protein [1])	Wnt1 protein levels after Salmonella infection (Wnt1 protein [2])
lipopolysaccharide [LPS]	not observed	
CC(C)C[C@@H](C=O)NC(=O)[C@H](CC(C)C)NC(=O)[C@H](CC(C)C)NC(=O)OCc1ccccc1 [MG132] (Cbz-Leu-Leu-Leu-aldehyde)		stabilized
